Data from patent publication US9493436B2, “Tyrosine phosphatase inhibitors and uses thereof to modulate the activity of enzymes involved in the pathology of Mycobacterium tuberculosis” (priority 2011, dated 2016).

Tests used:
Laforin = Laforin (Homo sapiens, UniProt O95278); type: biochemical
[1] = tested on: Akt phosphorylation in Raw264.7 cells expressing mPTPB; type: cell-based, mouse; settings: macrophage cells expressing mPTPB, increasing concentrations
SHP1 = SHP1 (Homo sapiens, UniProt P29350); type: biochemical
SHP1, sequence (P29350 whole entry): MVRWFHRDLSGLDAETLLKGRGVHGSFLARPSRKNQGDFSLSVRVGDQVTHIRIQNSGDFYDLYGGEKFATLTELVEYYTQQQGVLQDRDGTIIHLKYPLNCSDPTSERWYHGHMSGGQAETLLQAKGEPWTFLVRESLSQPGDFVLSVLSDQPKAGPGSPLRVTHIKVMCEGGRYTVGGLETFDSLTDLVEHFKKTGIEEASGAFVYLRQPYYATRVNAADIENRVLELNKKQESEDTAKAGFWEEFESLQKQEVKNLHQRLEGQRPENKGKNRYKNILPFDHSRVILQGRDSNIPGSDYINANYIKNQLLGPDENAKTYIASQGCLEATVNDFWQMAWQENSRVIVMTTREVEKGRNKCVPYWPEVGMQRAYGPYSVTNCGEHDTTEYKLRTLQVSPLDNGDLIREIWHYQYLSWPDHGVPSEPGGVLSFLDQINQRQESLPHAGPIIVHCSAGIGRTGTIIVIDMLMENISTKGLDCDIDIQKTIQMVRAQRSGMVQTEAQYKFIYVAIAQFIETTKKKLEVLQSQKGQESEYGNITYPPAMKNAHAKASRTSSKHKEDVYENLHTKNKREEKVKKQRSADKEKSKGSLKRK

[2] = tested on: Caspase 3 activity in macrophage cells expressing mPTPB; type: cell-based; settings: especially at 120 and 240 nM
VHR = VHR (Homo sapiens, UniProt P51452); settings: read-out: IC50 (μM) VHR
VHR, sequence (P51452 whole entry, species assumed): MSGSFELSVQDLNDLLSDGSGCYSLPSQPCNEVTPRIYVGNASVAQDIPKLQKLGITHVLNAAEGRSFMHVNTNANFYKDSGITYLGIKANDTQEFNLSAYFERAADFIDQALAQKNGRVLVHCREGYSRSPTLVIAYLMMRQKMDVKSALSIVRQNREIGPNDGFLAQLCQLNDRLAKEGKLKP

Lyp = biological target: T1, Lyp (Homo sapiens, UniProt Q9Y2R2); test: biochemical; type: biochemical
T1 sequence (Q9Y2R2 1-807): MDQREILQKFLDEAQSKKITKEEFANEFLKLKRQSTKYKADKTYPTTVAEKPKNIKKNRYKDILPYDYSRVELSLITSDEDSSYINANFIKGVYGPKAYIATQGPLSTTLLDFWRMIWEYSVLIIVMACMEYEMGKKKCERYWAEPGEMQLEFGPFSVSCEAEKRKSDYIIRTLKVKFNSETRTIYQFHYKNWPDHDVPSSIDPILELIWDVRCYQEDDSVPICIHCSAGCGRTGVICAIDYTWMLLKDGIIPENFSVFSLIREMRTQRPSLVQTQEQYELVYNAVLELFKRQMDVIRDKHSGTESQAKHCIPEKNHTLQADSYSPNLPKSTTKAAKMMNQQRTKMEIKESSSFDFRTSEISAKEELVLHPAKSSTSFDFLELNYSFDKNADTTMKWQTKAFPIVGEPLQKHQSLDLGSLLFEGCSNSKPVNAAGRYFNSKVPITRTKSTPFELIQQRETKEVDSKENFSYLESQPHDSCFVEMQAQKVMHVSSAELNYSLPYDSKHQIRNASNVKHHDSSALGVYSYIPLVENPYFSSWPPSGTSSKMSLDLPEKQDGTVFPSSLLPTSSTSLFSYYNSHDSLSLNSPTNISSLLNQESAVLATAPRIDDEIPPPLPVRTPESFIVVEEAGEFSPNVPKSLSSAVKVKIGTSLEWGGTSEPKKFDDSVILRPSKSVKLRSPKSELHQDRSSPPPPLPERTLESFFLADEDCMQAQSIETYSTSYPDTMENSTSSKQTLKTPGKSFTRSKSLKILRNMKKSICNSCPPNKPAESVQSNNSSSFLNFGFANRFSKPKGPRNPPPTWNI

YopH = YopH (UniProt P15273); type: biochemical; settings: read-out: IC50 (μM) YopH
YopH, sequence (P15273 whole entry, looked up): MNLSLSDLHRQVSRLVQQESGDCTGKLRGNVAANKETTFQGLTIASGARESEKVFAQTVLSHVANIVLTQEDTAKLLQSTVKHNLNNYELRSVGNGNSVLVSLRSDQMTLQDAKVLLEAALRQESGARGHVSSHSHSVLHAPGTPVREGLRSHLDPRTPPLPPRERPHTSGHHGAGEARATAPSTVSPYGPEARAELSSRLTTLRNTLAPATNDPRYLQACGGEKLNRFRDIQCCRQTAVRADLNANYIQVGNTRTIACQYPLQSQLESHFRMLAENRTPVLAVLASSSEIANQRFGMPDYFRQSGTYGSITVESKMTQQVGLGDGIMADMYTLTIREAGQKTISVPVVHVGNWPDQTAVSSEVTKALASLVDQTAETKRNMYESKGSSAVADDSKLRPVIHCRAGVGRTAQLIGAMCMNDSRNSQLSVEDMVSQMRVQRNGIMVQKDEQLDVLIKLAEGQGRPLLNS

mPTPA = mPTPA (Mycobacterium tuberculosis, UniProt P9WIA1); test: PTP selectivity panel: mPTPA; type: biochemical
mPTPA, sequence (P9WIA1 whole entry): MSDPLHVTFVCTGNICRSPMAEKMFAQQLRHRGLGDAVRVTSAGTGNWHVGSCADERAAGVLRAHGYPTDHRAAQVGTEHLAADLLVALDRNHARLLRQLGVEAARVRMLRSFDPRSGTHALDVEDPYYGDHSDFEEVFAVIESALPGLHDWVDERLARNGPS

Laforin, sequence (O95278 whole entry, species assumed): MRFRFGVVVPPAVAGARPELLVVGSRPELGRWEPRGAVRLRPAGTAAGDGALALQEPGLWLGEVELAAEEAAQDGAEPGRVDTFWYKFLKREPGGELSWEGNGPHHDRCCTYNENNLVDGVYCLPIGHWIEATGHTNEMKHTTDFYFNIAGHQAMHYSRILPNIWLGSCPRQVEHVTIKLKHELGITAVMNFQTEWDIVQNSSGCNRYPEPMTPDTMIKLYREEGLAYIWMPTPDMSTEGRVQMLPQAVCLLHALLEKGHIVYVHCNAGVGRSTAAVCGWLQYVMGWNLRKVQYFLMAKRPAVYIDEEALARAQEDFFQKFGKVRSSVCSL

Row | Compound | IC50 (Laforin) [µM] | AKT phosphorylation / Akt activation [1] | IC50 (SHP1) [µM] | caspase 3 activity [2] | IC50 (VHR) [µM] | IC50 (Lyp) [µM] | IC50 (YopH) [µM] | IC50 (mPTPA) [µM]
1 | O=C(O)c1cc2c(C#Cc3cccc(C(F)(F)F)c3)c(-c3ccccc3)oc2cc1O [32 (L01Z08)] | 40 ± 10 | phosphorylation decreasing with treatments of increasing concentrations | 2.3 ± 0.3 | returns caspase 3 activity to near normal levels | 1.9 ± 0.4 |  |  | 
2 | Cn1c(-c2ccccc2C(F)(F)F)c(I)c2cc(C(=O)O)c(O)cc21 [Compound 207a, 6-hydroxy-3-iodo-1-methyl-2-(2-(trifluoromethyl)phenyl)-1H-indole-5-carboxylic acid] |  |  |  |  |  | 75 ± 4 | 220 ± 20 | 82 ± 1
